Values after ≈ are worked out from the molar mass of the structure shown.

Broadly, the MIC90 is the lowest concentration that inhibits either 90% of growth or 90% of the strains tested, depending on the study.

Holding throughout (type): cell-based
The subject of assay [1] is Staphylococcus aureus 29213. As to the kind of experiment: Antibacterial growth inhibition assay (serial dilution, colorimeter at 600 nm), S. aureus 29213. Set-up: key to MIC, concentration at 50% inhibition of bacteria growth, S. aureus 29213: N stands for no inhibition. The note with it: for MIC / MIC90: Staphylococcus aureus, 29213; for MIC / MIC, concentration at 50% inhibition of bacteria growth, S. aureus 29213: 50% growth inhibition, methicillin susceptible strain, serial dilution 238-0.46 μg/ml; for MIC: read-out: MIC, concentration at 50% inhibition of bacteria growth, S. aureus 29213; for MIC90: concentration of inhibition at 90%, Table 2, read-out: MIC90 S. aureus 29213. As to the method: (§1) The antibacterial activities of the compounds synthesized as described above were evaluated by assay against several strains of Gram positive bacteria from the American Type Culture Collection (ATCC), Staphylococcus aureus 29213, Staphylococcus aureus 43300, Enterococcus faecalis 29212, and Bacillus subtilis PY79. The minimum inhibition concentration (MIC, μg/mL) of each compound synthesized was tested against four bacterial strains. The inhibition of bacterial growth was monitored using a standard colorimeter at 600 nm using a serial dilution at concentrations 238, 119, 59.5, 29.8, 14.9, 7.44, 3.72, 1.86, 0.93, 0.46 μg/ml. Chloramphenicol was tested as a control, and inhibits bacteria growth (MIC90) at 7.44, 7.44, 4.0, 2.0 μg/mL, respectively, for the four bacterial strains listed in Table 1. In Table 1, the MICs are reported as the concentrations at 50% inhibition of bacteria growth, and N stands for no inhibition.

Assay [2] has as its system Staphylococcus aureus 43300. As to the kind of experiment: Antibacterial growth inhibition assay (serial dilution, colorimeter at 600 nm), S. aureus 43300. Set-up: key to MIC, concentration at 50% inhibition of bacteria growth, S. aureus 43300: N stands for no inhibition. The following applies: for MIC: Staphylococcus aureus, 43300, read-out: MIC, concentration at 50% inhibition of bacteria growth, S. aureus 43300; for MIC / MIC, concentration at 50% inhibition of bacteria growth, S. aureus 43300: 50% growth inhibition, methicillin resistant strain, serial dilution 238-0.46 μg/ml. The procedure:
as §1

Assay [3] has as its system Enterococcus faecalis 29212. Description: Antibacterial growth inhibition assay (serial dilution, colorimeter at 600 nm), E. faecalis 29212. Details: key to MIC, concentration at 50% inhibition of bacteria growth, E. faecalis 29212: N stands for no inhibition. The note with it: for MIC: Enterococcus faecalis, 29212, read-out: MIC, concentration at 50% inhibition of bacteria growth, E. faecalis 29212; for MIC / MIC, concentration at 50% inhibition of bacteria growth, E. faecalis 29212: 50% growth inhibition, vancomycin susceptible strain, serial dilution 238-0.46 μg/ml. The procedure:
as §1

The test system of another assay is Bacillus subtilis PY79. As to the kind of experiment: Antibacterial growth inhibition assay (serial dilution, colorimeter at 600 nm), B. subtilis PY79. The note with it: for MIC / MIC90: Bacillus subtilis, PY79; for MIC / MIC, concentration at 50% inhibition of bacteria growth, B. subtilis PY79: 50% growth inhibition, serial dilution 238-0.46 μg/ml; for MIC: read-out: MIC, concentration at 50% inhibition of bacteria growth, B. subtilis PY79; for MIC90: concentration of inhibition at 90%, Table 2, read-out: MIC90 B. subtilis PY79. Details: key to MIC, concentration at 50% inhibition of bacteria growth, B. subtilis PY79: N stands for no inhibition. The procedure: as §1

Assay [4] has as its system Gram positive bacteria, including S. aureus, E. faecalis and B. subtilis. Description: Antibacterial activity, statements not tied to one strain. The note with it: for antibacterial activity in words: strain not singled out. The procedure:
as §1

In the case of `CCN1CC[C@@H](CN(Cc2ccccc2)Cc2cccc3ccccc23)OC1=O` [Compound A13], the MIC was 10 µg/mL (≈ 25.7 µM) in assay [1], 35 µg/mL (≈ 90.1 µM) in assay [2], 7.4 µg/mL (≈ 19 µM) in assay [3] and 7.6 µg/mL (≈ 19.6 µM) with Bacillus subtilis PY79. Besides, the MIC90 in assay [1] came out at 14.9 µg/mL (≈ 38.4 µM); with Bacillus subtilis PY79 it was 30 µg/mL (≈ 77.2 µM). For the same molecule, the “antibacterial activity in words” value in assay [4] is “most potent”.

As for `CCN1CC[C@@H](CN(Cc2ccccc2)Cc2ccccc2C)OC1=O` [Compound A17], the “concentration of complete (greater than 90%) inhibition” value worked out at 30 µg/mL in assay [1] (S. aureus 29213) and 30 µg/mL in assay [2] (S. aureus 43300, methicillin resistant). Moreover, the MIC is 22 µg/mL (≈ 62.4 µM) in assay [1], 22.5 µg/mL (≈ 63.8 µM) in assay [2], 8.1 µg/mL (≈ 23 µM) in assay [3] and 26 µg/mL (≈ 73.8 µM) with Bacillus subtilis PY79. Also, the MIC90 in assay [1] was determined as 29.8 µg/mL (≈ 84.5 µM); with Bacillus subtilis PY79 it was 59.5 µg/mL (≈ 169 µM). In addition, the “concentration inhibiting over 90% growth” value in assay [3] (E. faecalis 29212) was 14.9 µg/mL. Also, the “antibacterial activity in words” value in assay [4] is “most potent”.

As to `CN1CC[C@@H](CN(Cc2ccccc2)Cc2ccc3ccccc3c2)OC1=O` [Compound B9], the MIC in assay [1] was determined as 11.5 µg/mL (≈ 30.7 µM); in assay [2], 13 µg/mL (≈ 34.7 µM); in assay [3], 14.9 µg/mL (≈ 39.8 µM); in the assay with Bacillus subtilis PY79, 12 µg/mL (≈ 32 µM). Also, the MIC90 was determined as 14.9 µg/mL (≈ 39.8 µM) in assay [1] and 30 µg/mL (≈ 80.1 µM) in the assay on Bacillus subtilis PY79. The “antibacterial activity in words” value in assay [4] is on record as “most potent”.

For `CCN1CC[C@@H](CN(Cc2ccccc2)Cc2ccccn2)OC1=O` [Compound A15], the “MIC, concentration at 50% inhibition of bacteria growth, S. aureus 29213” value in assay [1] is “N”. Besides, the “MIC, concentration at 50% inhibition of bacteria growth, S. aureus 43300” value in assay [2] is reported as “N”. The “MIC, concentration at 50% inhibition of bacteria growth, E. faecalis 29212” value in assay [3] is given as “N”. Besides, in the assay on Bacillus subtilis PY79, the “MIC, concentration at 50% inhibition of bacteria growth, B. subtilis PY79” value is recorded as “N”. Moreover, in assay [4], the “antibacterial activity in words” value is recorded as “decreased or nullified”.

Regarding `CCN1CC[C@@H](CN(Cc2ccccc2)Cc2ccc(Cl)c(Cl)c2)OC1=O` [Compound A11, 6-{[benzyl-(3,4-dichloro-benzyl)-amino]-methyl}-3-ethyl-[1,3]oxazinan-2-one], the “antibacterial activity in words” value is “excellent activity” in assay [1] (S. aureus 29213); “excellent activity” in assay [2] (S. aureus 43300); “no activity” in assay [3] (E. faecalis 29212); “excellent activity” with Bacillus subtilis PY79 (B. subtilis PY79); “most potent” in assay [4]. Further, the figures for the MIC (in assay [1]; in assay [2]; with Bacillus subtilis PY79) were 5.6 µg/mL (≈ 13.7 µM), 6.56 µg/mL (≈ 16.1 µM) and 5 µg/mL (≈ 12.3 µM), respectively. For the same molecule, the MIC90 in assay [1] was 9.85 µg/mL (≈ 24.2 µM); with Bacillus subtilis PY79, 7.44 µg/mL (≈ 18.3 µM); in assay [4] (strain not named in the sentence (Table 2: S. aureus 29213, B. subtilis PY79)) it was < 10 µg/mL. In assay [3], the “MIC, concentration at 50% inhibition of bacteria growth, E. faecalis 29212” value was “N”.

As to `CCN1CC[C@@H](CN(Cc2ccccc2)Cc2cccnc2)OC1=O` [Compound A14], in assay [1], the “MIC, concentration at 50% inhibition of bacteria growth, S. aureus 29213” value is given as “N”. Moreover, the “MIC, concentration at 50% inhibition of bacteria growth, S. aureus 43300” value in assay [2] is recorded as “N”. The “MIC, concentration at 50% inhibition of bacteria growth, E. faecalis 29212” value in assay [3] came out at 238 µg/mL. Also, in the assay with Bacillus subtilis PY79, the “MIC, concentration at 50% inhibition of bacteria growth, B. subtilis PY79” value is “N”. For the same molecule, the “antibacterial activity in words” value in assay [4] was “decreased or nullified”.

(Values after patent publication US7700590B2, “Antibacterial agents” (University of New Orleans Research and Technology …, priority 2006, dated 2010).)
